Measured values: patent US8741944B2, “Anti-infective agents against intracellular pathogens” (priority 2007, dated 2014)
Where two headings read alike, the source gives them in different places.

How the values were obtained:
[1] = test system: 786-0 (Renal Cancer); experiment: NCI DTP tumor cell line screen (SRB), 786-0
Method: (§1) For a typical screening experiment, cells are inoculated into 96 well microtiter plates in 100 μL at plating densities ranging from 5,000 to 40,000 cells/well depending on the doubling time of individual cell lines. After cell inoculation, the microtiter plates are incubated at 37° C., 5% CO2, 95% air and 100% relative humidity for 24 h prior to addition of experimental drugs.
(§2) After 24 h, two plates of each cell line are fixed in situ with TCA, to represent a measurement of the cell population for each cell line at the time of drug addition (Tz). Experimental drugs are solubilized in dimethyl sulfoxide at 400-fold the desired final maximum test concentration and stored frozen prior to use. At the time of drug addition, an aliquot of frozen concentrate is thawed and diluted to twice the desired final maximum test concentration with complete medium containing 50 μg/ml gentamicin. Additional four, 10-fold or ½ log serial dilutions are made to provide a total of five drug concentrations plus control. Aliquots of 100 μl of these different drug dilutions are added to the appropriate microtiter wells already containing 100 μl of medium, resulting in the required final drug concentrations.
(§3) Following drug addition, the plates are incubated for an additional 48 h at 37° C., 5% CO2, 95% air, and 100% relative humidity. For adherent cells, the assay is terminated by the addition of cold TCA. Cells are fixed in situ by the gentle addition of 50 μl of cold 50% (w/v) TCA (final concentration, 10% TCA) and incubated for 60 minutes at 4° C. The supernatant is discarded, and the plates are washed five times with tap water and air dried. Sulforhodamine B (SRB) solution (1001) at 0.4% (w/v) in 1% acetic acid is added to each well, and plates are incubated for 10 minutes at room temperature. After staining, unbound dye is removed by washing five times with 1% acetic acid and the plates are air dried. Bound stain is subsequently solubilized with 10 mM trizma base, and the absorbance is read on an automated plate reader at a wavelength of 515 nm. For suspension cells, the methodology is the same except that the assay is terminated by fixing settled cells at the bottom of the wells by gently adding 50 μl of 80% TCA (final concentration, 16% TCA). Using the seven absorbance measurements [time zero, (Tz), control growth, (C), and test growth in the presence of drug at the five concentration levels (Ti)], the percentage growth is calculated at each of the drug concentrations levels. Percentage growth inhibition is calculated as: [(Ti−Tz)/(C−Tz)]×100 for concentrations for which Ti>/=Tz [(Ti−Tz)/Tz]×100 for concentrations for which Ti<Tz
(§4) Three dose response parameters are calculated for each experimental agent. […] The drug concentration resulting in total growth inhibition (TGI) is calculated from Ti=Tz. […] Values are calculated for each of these three parameters if the level of activity is reached; however, if the effect is not reached or is exceeded, the value for that parameter is expressed as greater or less than the maximum or minimum concentration tested.

[2] = test system: TK-10 (Renal Cancer); experiment: NCI DTP tumor cell line screen (SRB), TK-10
Method: as §1, §2, §3, §4

[3] = test system: UO-31 (Renal Cancer); experiment: NCI DTP tumor cell line screen (SRB), UO-31
Method: as §1, §2, §3, §4

[4] = test system: HOP-62 (Non-Small Cell Lung Cancer); experiment: NCI DTP tumor cell line screen (SRB), HOP-62
Method: as §1, §2, §3, §4

[5] = test system: IGROV1 (Ovarian Cancer); experiment: NCI DTP tumor cell line screen (SRB), IGROV1
Method: as §1, §2, §3, §4

[6] = test system: OVCAR-4 (Ovarian Cancer); experiment: NCI DTP tumor cell line screen (SRB), OVCAR-4
Method: as §1, §2, §3, §4

[7] = test system: NCI-H522 (Non-Small Cell Lung Cancer)
Method: as §1, §2, §3, §4

[8] = test system: COLO 205 (Colon Cancer); experiment: NCI DTP tumor cell line screen (SRB), COLO 205
Method: as §1, §2, §3, §4

[9] = test system: SK-MEL-2 (Melanoma); experiment: NCI DTP tumor cell line screen (SRB), SK-MEL-2
Method: as §1, §2, §3, §4

[10] = test system: RPMI-8226 (Leukemia); experiment: NCI DTP tumor cell line screen (SRB), RPMI-8226
Method: as §1, §2, §3, §4

[11] = test system: A549/ATCC (Non-Small Cell Lung Cancer); experiment: NCI DTP tumor cell line screen (SRB), A549/ATCC
Method: as §1, §2, §3, §4

[12] = test system: SK-MEL-28 (Melanoma); experiment: NCI DTP tumor cell line screen (SRB), SK-MEL-28
Method: as §1, §2, §3, §4

[13] = test system: MDA-MB-435 (Breast Cancer); experiment: NCI DTP tumor cell line screen (SRB), MDA-MB-435
Method: as §1, §2, §3, §4

[14] = test system: NCI/ADR-RES (Breast Cancer)
Method: as §1, §2, §3, §4

[15] = test system: MDA-MB-231/ATCC (Breast Cancer); experiment: NCI DTP tumor cell line screen (SRB), MDA-MB-231/ATCC
Method: as §1, §2, §3, §4

NCC(=O)Nc1ccc(-n2nc(C(F)(F)F)cc2-c2ccc3c(ccc4ccccc43)c2)cc1 [Compound 70, 2-Amino-N-{4-[5-(2-phenanthrenyl)-3-(trifluoromethyl)-1H-pyrazol-1-yl]-phenyl}-acetamide]
TGI [1]: 2.85E−06 | Mean Optical Densities ([1]; Log10 Concentration −4.0): 0.299 | Mean Optical Densities ([1]; Log10 Concentration −5.0): 0.181 | Percent Growth ([1]; Log10 Concentration −5.0): −72% | Mean Optical Densities ([1]; Log10 Concentration −6.0): 1.440 | Percent Growth ([1]; Log10 Concentration −6.0): 60% | Mean Optical Densities ([1]; Log10 Concentration −7.0): 1.897 | Percent Growth ([1]; Log10 Concentration −7.0): 95% | Mean Optical Densities ([1]; Log10 Concentration −8.0): 2.012 | Percent Growth ([1]; Log10 Concentration −8.0): 104% | TGI [2]: 3.10E−06 | Mean Optical Densities ([2]; Log10 Concentration −4.0): 0.200 | Mean Optical Densities ([2]; Log10 Concentration −5.0): 0.138 | Percent Growth ([2]; Log10 Concentration −5.0): −80% | Mean Optical Densities ([2]; Log10 Concentration −6.0): 1.304 | Percent Growth ([2]; Log10 Concentration −6.0): 77% | Mean Optical Densities ([2]; Log10 Concentration −7.0): 1.492 | Percent Growth ([2]; Log10 Concentration −7.0): 100% | Mean Optical Densities ([2]; Log10 Concentration −8.0): 1.512 | Percent Growth ([2]; Log10 Concentration −8.0): 102% | TGI [3]: 3.29E−06 | Mean Optical Densities ([3]; Log10 Concentration −4.0): 0.285 | Mean Optical Densities ([3]; Log10 Concentration −5.0): 0.161 | Percent Growth ([3]; Log10 Concentration −5.0): −64% | Mean Optical Densities ([3]; Log10 Concentration −6.0): 1.356 | Percent Growth ([3]; Log10 Concentration −6.0): 68% | Mean Optical Densities ([3]; Log10 Concentration −7.0): 1.563 | Percent Growth ([3]; Log10 Concentration −7.0): 84% | Mean Optical Densities ([3]; Log10 Concentration −8.0): 1.572 | Percent Growth ([3]; Log10 Concentration −8.0): 84% | TGI [4]: 3.01E−06 | Mean Optical Densities ([4]; Log10 Concentration −4.0): 0.217 | Mean Optical Densities ([4]; Log10 Concentration −5.0): 0.155 | Percent Growth ([4]; Log10 Concentration −5.0): −70% | Mean Optical Densities ([4]; Log10 Concentration −6.0): 1.075 | Percent Growth ([4]; Log10 Concentration −6.0): 64% | Mean Optical Densities ([4]; Log10 Concentration −7.0): 1.330 | Percent Growth ([4]; Log10 Concentration −7.0): 93% | Mean Optical Densities ([4]; Log10 Concentration −8.0): 1.310 | Percent Growth ([4]; Log10 Concentration −8.0): 90% | TGI [5]: 3.97E−06 | Mean Optical Densities ([5]; Log10 Concentration −4.0): 0.302 | Mean Optical Densities ([5]; Log10 Concentration −5.0): 0.235 | Percent Growth ([5]; Log10 Concentration −5.0): −49% | Mean Optical Densities ([5]; Log10 Concentration −6.0): 0.902 | Percent Growth ([5]; Log10 Concentration −6.0): 74% | Mean Optical Densities ([5]; Log10 Concentration −7.0): 1.103 | Percent Growth ([5]; Log10 Concentration −7.0): 107% | Mean Optical Densities ([5]; Log10 Concentration −8.0): 1.044 | Percent Growth ([5]; Log10 Concentration −8.0): 97% | TGI [6]: 3.41E−06 | Mean Optical Densities ([6]; Log10 Concentration −4.0): 0.172 | Mean Optical Densities ([6]; Log10 Concentration −5.0): 0.093 | Percent Growth ([6]; Log10 Concentration −5.0): −82% | Mean Optical Densities ([6]; Log10 Concentration −6.0): 1.086 | Percent Growth ([6]; Log10 Concentration −6.0): 94% | Mean Optical Densities ([6]; Log10 Concentration −7.0): 1.073 | Percent Growth ([6]; Log10 Concentration −7.0): 92% | Mean Optical Densities ([6]; Log10 Concentration −8.0): 1.114 | Percent Growth ([6]; Log10 Concentration −8.0): 99% | TGI [7]: 3.94E−06 | Mean Optical Densities ([7]; Log10 Concentration −4.0): 0.486 | Mean Optical Densities ([7]; Log10 Concentration −5.0): 0.260 | Percent Growth ([7]; Log10 Concentration −5.0): −66% | Mean Optical Densities ([7]; Log10 Concentration −6.0): 1.528 | Percent Growth ([7]; Log10 Concentration −6.0): 97% | Mean Optical Densities ([7]; Log10 Concentration −7.0): 1.718 | Percent Growth ([7]; Log10 Concentration −7.0): 122% | Mean Optical Densities ([7]; Log10 Concentration −8.0): 1.626 | Percent Growth ([7]; Log10 Concentration −8.0): 110% | Mean Optical Densities ([8]; Log10 Concentration −4.0): 0.239 | Mean Optical Densities ([8]; Log10 Concentration −5.0): 0.104 | Percent Growth ([8]; Log10 Concentration −5.0): −53% | Mean Optical Densities ([8]; Log10 Concentration −6.0): 0.916 | Percent Growth ([8]; Log10 Concentration −6.0): 58% | Mean Optical Densities ([8]; Log10 Concentration −7.0): 1.252 | Percent Growth ([8]; Log10 Concentration −7.0): 87% | Mean Optical Densities ([8]; Log10 Concentration −8.0): 1.286 | Percent Growth ([8]; Log10 Concentration −8.0): 89% | TGI [9]: 5.40E−06 | Mean Optical Densities ([9]; Log10 Concentration −4.0): 0.330 | Mean Optical Densities ([9]; Log10 Concentration −5.0): 0.289 | Mean Optical Densities ([9]; Log10 Concentration −6.0): 0.885 | Percent Growth ([9]; Log10 Concentration −6.0): 100% | Mean Optical Densities ([9]; Log10 Concentration −7.0): 0.956 | Percent Growth ([9]; Log10 Concentration −7.0): 117% | Mean Optical Densities ([9]; Log10 Concentration −8.0): 0.943 | Percent Growth ([9]; Log10 Concentration −8.0): 114% | TGI [10]: 2.84E−06 | Mean Optical Densities ([10]; Log10 Concentration −4.0): 0.229 | Mean Optical Densities ([10]; Log10 Concentration −5.0): 0.164 | Percent Growth ([10]; Log10 Concentration −5.0): −51% | Mean Optical Densities ([10]; Log10 Concentration −6.0): 0.547 | Percent Growth ([10]; Log10 Concentration −6.0): 42% | Mean Optical Densities ([10]; Log10 Concentration −7.0): 0.701 | Percent Growth ([10]; Log10 Concentration −7.0): 72% | Mean Optical Densities ([10]; Log10 Concentration −8.0): 0.766 | Percent Growth ([10]; Log10 Concentration −8.0): 85% | TGI [11]: 2.96E−06 | Mean Optical Densities ([11]; Log10 Concentration −4.0): 0.252 | Mean Optical Densities ([11]; Log10 Concentration −5.0): 0.155 | Percent Growth ([11]; Log10 Concentration −5.0): −57% | Mean Optical Densities ([11]; Log10 Concentration −6.0): 0.831 | Percent Growth ([11]; Log10 Concentration −6.0): 51% | Mean Optical Densities ([11]; Log10 Concentration −7.0): 1.149 | Percent Growth ([11]; Log10 Concentration −7.0): 86% | Mean Optical Densities ([11]; Log10 Concentration −8.0): 1.294 | Percent Growth ([11]; Log10 Concentration −8.0): 102% | TGI [12]: 2.64E−06 | Mean Optical Densities ([12]; Log10 Concentration −4.0): 0.218 | Mean Optical Densities ([12]; Log10 Concentration −5.0): 0.071 | Percent Growth ([12]; Log10 Concentration −5.0): −87% | Mean Optical Densities ([12]; Log10 Concentration −6.0): 1.130 | Percent Growth ([12]; Log10 Concentration −6.0): 63% | Mean Optical Densities ([12]; Log10 Concentration −7.0): 1.320 | Percent Growth ([12]; Log10 Concentration −7.0): 83% | Mean Optical Densities ([12]; Log10 Concentration −8.0): 1.426 | Percent Growth ([12]; Log10 Concentration −8.0): 94% | TGI [13]: 3.14E−06 | Mean Optical Densities ([13]; Log10 Concentration −4.0): 0.347 | Mean Optical Densities ([13]; Log10 Concentration −5.0): 0.127 | Percent Growth ([13]; Log10 Concentration −5.0): −69% | Mean Optical Densities ([13]; Log10 Concentration −6.0): 1.126 | Percent Growth ([13]; Log10 Concentration −6.0): 68% | Mean Optical Densities ([13]; Log10 Concentration −7.0): 1.447 | Percent Growth ([13]; Log10 Concentration −7.0): 98% | Mean Optical Densities ([13]; Log10 Concentration −8.0): 1.502 | Percent Growth ([13]; Log10 Concentration −8.0): 103% | TGI [14]: 2.85E−06 | Mean Optical Densities ([14]; Log10 Concentration −4.0): 0.212 | Mean Optical Densities ([14]; Log10 Concentration −5.0): 0.229 | Percent Growth ([14]; Log10 Concentration −5.0): −59% | Mean Optical Densities ([14]; Log10 Concentration −6.0): 1.217 | Percent Growth ([14]; Log10 Concentration −6.0): 49% | Mean Optical Densities ([14]; Log10 Concentration −7.0): 1.878 | Percent Growth ([14]; Log10 Concentration −7.0): 98% | Mean Optical Densities ([14]; Log10 Concentration −8.0): 1.883 | Percent Growth ([14]; Log10 Concentration −8.0): 98% | TGI [15]: 2.77E−06 | Mean Optical Densities ([15]; Log10 Concentration −4.0): 0.306 | Mean Optical Densities ([15]; Log10 Concentration −5.0): 0.173 | Percent Growth ([15]; Log10 Concentration −5.0): −73% | Mean Optical Densities ([15]; Log10 Concentration −6.0): 0.843 | Percent Growth ([15]; Log10 Concentration −6.0): 58% | Mean Optical Densities ([15]; Log10 Concentration −7.0): 0.889 | Percent Growth ([15]; Log10 Concentration −7.0): 71% | Mean Optical Densities ([15]; Log10 Concentration −8.0): 0.988 | Percent Growth ([15]; Log10 Concentration −8.0): 100%
